# Measurements as given in patent publication US7468384B2, “Microbicidal composition” (Rohm and Haas Company, priority 2004, dated 2008).
# Assays:
# Type in all cases: cell-based
# [1] = test system: Candida albicans (C. albicans—ATCC 10231); assay: Synergy test, microtiter plate high resolution MIC assay, yeast; conditions: C. albicans 10231, PDB; for Qa: BIT concentration giving end point (MIC); for Qa (BIT at end point, MIC): alone where Qb = 0
# In short: (§1)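 Values derive from Kull synergy index (Qa/QA + Qb/QB, ppm MIC endpoints, alone vs in mixture). Endpoints from high-resolution microtiter MICs spanning 2–10,000 ppm; bacterium ~5×10^6/mL in TSB or M9GY, yeast and mold 5×10^5/mL in PDB.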
# [2] = test system: Aspergillus niger (A. niger—ATCC 16404); assay: Synergy test, microtiter plate high resolution MIC assay, mold; set-up: key to SI (calculated synergy index) / SI (synergy index): SI = Qa/QA + Qb/QB (mixture vs. alone end-point concentrations); conditions: A. niger 16404, PDB; for Qa: BIT concentration giving end point (MIC); for Qa (BIT at end point, MIC): alone where Qb = 0
# In short: as §1
# [3] = test system: Pseudomonas aeruginosa (P. aeruginosa—ATCC #15442); assay: Synergy test, microtiter plate high resolution MIC assay, bacterium; set-up: key to SI (calculated synergy index) / SI (synergy index): SI = Qa/QA + Qb/QB (mixture vs. alone end-point concentrations); conditions: P. aeruginosa 15442, M9GY; for Qa: BIT concentration giving end point (MIC); for Qa (BIT at end point, MIC): alone where Qb = 0
# In short: as §1
# [4] = test system: Escherichia coli (E. coli—ATCC #8739); assay: as above; conditions: E. coli 8739, M9GY; for Qa: BIT concentration giving end point (MIC); for Qa (BIT at end point, MIC): alone where Qb = 0
# In short: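 High-resolution MICs were found by adding microbicide to one microtitre column and making ten-fold dilutions with an automated liquid handler, giving endpoints from 2 ppm to 10,000 ppm active ingredient. The MIC is the lowest concentration that prevents growth. E. coli 8739, at roughly 5×10^6 cells per mL, grew in glucose/yeast-extract-supplemented minimal salt medium (M9GY). Values above one indicate antagonism.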
# [5] = alone or mixed with benzyl alcohol, 48 hours
# [6] = alone or mixed with caprylyl glycol, 24 hours
# [7] = alone or mixed with glutaraldehyde, 24 hours
# [8] = Table 24, BIT with Cis-1-(3-chloroallyl)-3,5,7-triaza-1-azoniaadamantane chloride, 24 hours
# [9] = Table 25, BIT with sodium dehydroacetic acid, 24 hours
# [10] = synergy index BIT + benzyl alcohol, 48 hours
# [11] = synergy index BIT + caprylyl glycol, 24 hours
# [12] = synergy index BIT + glutaraldehyde, 24 hours
# [13] = alone or mixed with Imidalozidinyl urea, 48 hours
# [14] = alone or mixed with diazolidinyl urea, 48 hours
# [15] = Table 26, BIT with sodium benzoate, 24 hours
# [16] = synergy index BIT + Imidalozidinyl urea, 48 hours
# [17] = synergy index BIT + diazolidinyl urea, 48 hours
structure (smiles),measurement,setting,value
"O=c1[nH]sc2ccccc12 [BIT, 1,2-benzisothiazolin-3-one]",Qa,"[1]; alone or mixed with Imidalozidinyl urea, 24 hours",30 ppm
same,Qa,[1]; [5],30 ppm
same,Qa,[1]; [6],30 ppm
same,Qa,"[1]; alone or mixed with diazolidinyl urea, 24 hours",30 ppm
same,Qa,[1]; [7],30 ppm
same,"Qa (BIT at end point, MIC)",[1]; [8],20 ppm
same,SI (synergy index),"[1]; Table 24, 24 hours",1.00
same,"Qa (BIT at end point, MIC)",[1]; [9],30 ppm
same,SI (synergy index),"[1]; Table 25, 24 hours",1.00
same,"Qa (BIT at end point, MIC)","[1]; Table 26, BIT with sodium benzoate, 48 hours",30 ppm
same,SI (synergy index),"[1]; Table 26, 48 hours",1.00
same,SI,"[1]; synergy index BIT + Imidalozidinyl urea, 24 hours",1.00
same,SI,[1]; [10],1.00
same,SI,[1]; [11],1.00
same,SI,"[1]; synergy index BIT + diazolidinyl urea, 24 hours",1.00
same,SI,[1]; [12],1.00
same,Qa,"[2]; alone or mixed with 2,2′-dithiobis(N-methylbenzamide), 3 days",20 ppm
same,Qa,"[2]; alone or mixed with EDTA, 4 days",20 ppm
same,Qa,"[2]; alone or mixed with Imidalozidinyl urea, 3 days",20 ppm
same,Qa,"[2]; alone or mixed with benzyl alcohol, 1 week",50 ppm
same,Qa,"[2]; alone or mixed with caprylyl glycol, 1 week",50 ppm
same,Qa,"[2]; alone or mixed with chlorphenesin, 1 week",50 ppm
same,Qa,"[2]; alone or mixed with diazolidinyl urea, 3 days",20 ppm
same,Qa,"[2]; alone or mixed with ethylparaben, 3 days",20 ppm
same,Qa,"[2]; alone or mixed with glutaraldehyde, 3 days",20 ppm
same,Qa,"[2]; alone or mixed with methylparaben, 4 days",30 ppm
same,Qa,"[2]; alone or mixed with phenoxyethanol, 3 days",20 ppm
same,SI (calculated synergy index),"[2]; Table 8, 1 week",1.00
same,"Qa: end-point activity (MIC) of BIT in the mixture (BIT alone, QA, where Qb = 0)","[2]; Table 8, 1 week, B = Benzalkonium chloride",30 ppm
same,SI (calculated synergy index),"[2]; Table 9, 4 days",1.00
same,"Qa: end-point activity (MIC) of BIT in the mixture (BIT alone, QA, where Qb = 0)","[2]; Table 9, 4 days, B = Benzethonium chloride",30 ppm
same,SI (synergy index),"[2]; Table 21, 4 days",1.00
same,"Qa (BIT at end point, MIC)","[2]; Table 21, BIT with Linoleamidopropyl PG-dimonium chloride phosphate, 4 days",30 ppm
same,SI (synergy index),"[2]; Table 22, 1 week",1.00
same,"Qa (BIT at end point, MIC)","[2]; Table 22, BIT with Cocamidopropyl PG-dimonium chloride phosphate, 1 week",30 ppm
same,SI (synergy index),"[2]; Table 23, 3 days",1.00
same,"Qa (BIT at end point, MIC)","[2]; Table 23, BIT with propylparaben, 3 days",20 ppm
same,SI (synergy index),"[2]; Table 24, 3 days",1.00
same,"Qa (BIT at end point, MIC)","[2]; Table 24, BIT with Cis-1-(3-chloroallyl)-3,5,7-triaza-1-azoniaadamantane chloride, 3 days",30 ppm
same,SI (synergy index),"[2]; Table 25, 1 week",1.00
same,"Qa (BIT at end point, MIC)","[2]; Table 25, BIT with sodium dehydroacetic acid, 1 week",30 ppm
same,SI (synergy index),"[2]; Table 26, 1 week",1.00
same,"Qa (BIT at end point, MIC)","[2]; Table 26, BIT with sodium benzoate, 1 week",30 ppm
same,SI (synergy index),"[2]; Table 27, 3 days",1.00
same,"Qa (BIT at end point, MIC)","[2]; Table 27, BIT with Sodium hydroxymethylglycinate, 3 days",20 ppm
same,SI (synergy index),"[2]; Table 28, 1 week",1.00
same,"Qa (BIT at end point, MIC)","[2]; Table 28, BIT with zinc pyrithione, 1 week",30 ppm
same,SI,"[2]; synergy index BIT + 2,2′-dithiobis(N-methylbenzamide), 3 days",1.00
same,SI,"[2]; synergy index BIT + EDTA, 4 days",1.00
same,SI,"[2]; synergy index BIT + Imidalozidinyl urea, 3 days",1.00
same,SI,"[2]; synergy index BIT + benzyl alcohol, 1 week",1.00
same,SI,"[2]; synergy index BIT + caprylyl glycol, 1 week",1.00
same,SI,"[2]; synergy index BIT + chlorphenesin, 1 week",1.00
same,SI,"[2]; synergy index BIT + diazolidinyl urea, 3 days",1.00
same,SI,"[2]; synergy index BIT + ethylparaben, 3 days",1.00
same,SI,"[2]; synergy index BIT + glutaraldehyde, 3 days",1.00
same,SI,"[2]; synergy index BIT + methylparaben, 4 days",1.00
same,SI,"[2]; synergy index BIT + phenoxyethanol, 3 days",1.00
same,Qa,"[3]; alone or mixed with 2,2′-dithiobis(N-methylbenzamide), 48 hours",100 ppm
same,Qa,[3]; [13],100 ppm
same,Qa,[3]; [5],100 ppm
same,Qa,[3]; [6],100 ppm
same,Qa,"[3]; alone or mixed with chlorphenesin, 72 hours",100 ppm
same,Qa,[3]; [14],100 ppm
same,Qa,"[3]; alone or mixed with ethylparaben, 48 hours",100 ppm
same,Qa,"[3]; alone or mixed with glutaraldehyde, 48 hours",60 ppm
same,Qa,"[3]; alone or mixed with methylparaben, 48 hours",100 ppm
same,Qa,"[3]; alone or mixed with phenoxyethanol, 48 hours",100 ppm
same,SI (calculated synergy index),"[3]; Table 8, 48 hours",1.00
same,"Qa: end-point activity (MIC) of BIT in the mixture (BIT alone, QA, where Qb = 0)","[3]; Table 8, 48 hours, B = Benzalkonium chloride",100 ppm
same,SI (calculated synergy index),"[3]; Table 9, 48 hours",1.00
same,"Qa: end-point activity (MIC) of BIT in the mixture (BIT alone, QA, where Qb = 0)","[3]; Table 9, 48 hours, B = Benzethonium chloride",100 ppm
same,"Qa (BIT at end point, MIC)","[3]; Table 21, BIT with Linoleamidopropyl PG-dimonium chloride phosphate, 48 hours",100 ppm
same,SI (synergy index),"[3]; Table 21, 48 hours",1.00
same,"Qa (BIT at end point, MIC)","[3]; Table 22, BIT with Cocamidopropyl PG-dimonium chloride phosphate, 72 hours",100 ppm
same,SI (synergy index),"[3]; Table 22, 72 hours",1.00
same,"Qa (BIT at end point, MIC)","[3]; Table 23, BIT with propylparaben, 24 hours",80 ppm
same,SI (synergy index),"[3]; Table 23, 24 hours",1.33
same,"Qa (BIT at end point, MIC)",[3]; [8],60 ppm
same,SI (synergy index),"[3]; Table 24, 24 hours",1.00
same,"Qa (BIT at end point, MIC)",[3]; [9],60 ppm
same,SI (synergy index),"[3]; Table 25, 24 hours",1.00
same,"Qa (BIT at end point, MIC)",[3]; [15],60 ppm
same,SI (synergy index),"[3]; Table 26, 24 hours",1.00
same,"Qa (BIT at end point, MIC)","[3]; Table 27, BIT with Sodium hydroxymethylglycinate, 24 hours",60 ppm
same,SI (synergy index),"[3]; Table 27, 24 hours",1.00
same,"Qa (BIT at end point, MIC)","[3]; Table 28, BIT with zinc pyrithione, 48 hours",100 ppm
same,SI (synergy index),"[3]; Table 28, 48 hours",1.00
same,SI,"[3]; synergy index BIT + 2,2′-dithiobis(N-methylbenzamide), 48 hours",1.00
same,SI,[3]; [16],1.00
same,SI,[3]; [10],1.00
same,SI,[3]; [11],1.00
same,SI,"[3]; synergy index BIT + chlorphenesin, 72 hours",1.00
same,SI,[3]; [17],1.00
same,SI,"[3]; synergy index BIT + ethylparaben, 48 hours",1.00
same,SI,"[3]; synergy index BIT + glutaraldehyde, 48 hours",1.00
same,SI,"[3]; synergy index BIT + methylparaben, 48 hours",1.00
same,SI,"[3]; synergy index BIT + phenoxyethanol, 48 hours",1.00
same,Qa,[4]; [13],7.5 ppm
same,Qa,"[4]; alone or mixed with benzyl alcohol, 24 hours",7.5 ppm
same,Qa,[4]; [6],7.5 ppm
same,Qa,[4]; [14],8 ppm
same,Qa,[4]; [7],10 ppm
same,"Qa (BIT at end point, MIC)","[4]; Table 24, BIT with Cis-1-(3-chloroallyl)-3,5,7-triaza-1-azoniaadamantane chloride, 48 hours",10 ppm
same,SI (synergy index),"[4]; Table 24, 48 hours",1.00
same,"Qa (BIT at end point, MIC)",[4]; [9],7.5 ppm
same,SI (synergy index),"[4]; Table 25, 24 hours",1.00
same,"Qa (BIT at end point, MIC)",[4]; [15],7.5 ppm
same,SI (synergy index),"[4]; Table 26, 24 hours",1.00
same,SI,[4]; [16],1.00
same,SI,"[4]; synergy index BIT + benzyl alcohol, 24 hours",1.00
same,SI,[4]; [11],1.00
same,SI,[4]; [17],1.00
same,SI,[4]; [12],1.00
